# Experimental data as given in article PMC5448077, “Development of an orally available inhibitor of CLK1 for skipping a mutated dystrophin exon in Duchenne muscular dystrophy” (Scientific Reports, 2017).
# Tests used:
# Test in all cases: biochemical
# [1] = biological target: FGR (Homo sapiens, UniProt P09769)
# Method: (§1) These assays rely on the phosphorylation of small synthetic peptides developed for each kinase, and detect activity by changes in electrophoretic mobility (MSA assay) or by binding of a fluorescently labelled peptide to a large micro-particle and concomitant polarization increases (IMAP assay). Reaction conditions for each kinase are described in Supplementary Table S5. All kinase assays were carried out at Carna Biosciences (Kobe, Japan). The inhibitory map was constructed using Kinome Render[41]. Inhibitor (4×), substrate/ATP-Metal (4×), and kinase (2×) solutions were prepared with assay buffer (20 mM HEPES, 0.01% Triton X-100, 2 mM DTT, pH 7.5) and mixed in 384-well plates at room temperature for 1 or 5 h depending on the kinase. Reactions were stopped by the addition of termination buffer (QuickScout Screening Assist MSA; Carna Biosciences). The entire reaction mixture was then applied to a LabChip system (Perkin-Elmer, Waltham, MA, USA) and the product and substrate peptide peaks were separated and quantified, and then heights of product (P) and substrate (S) peptide peaks were calculated. The level of kinase activity was evaluated with the following equation: activity = P/(P + S).
# [2] = biological target: T1, CK1γ3 (Homo sapiens, UniProt Q9Y6M4)
# T1 construct: gene CSNK1G3
# Method: as §1
# [3] = biological target: T2, PKD2 (Homo sapiens, UniProt Q9BZL6)
# T2 construct: gene PRKD2
# Method: as §1
# [4] = biological target: ITK (Homo sapiens, UniProt Q08881)
# Method: as §1
# [5] = biological target: FGFR3 (Homo sapiens, UniProt P22607)
# Method: as §1
# [6] = biological target: T3, MGC42105 (Homo sapiens, UniProt Q8IY84)
# T3 construct: gene NIM1K
# Method: as §1
# [7] = biological target: CDK3/CycE1 (Homo sapiens, UniProt Q00526)
# Method: as §1
# [8] = biological target: T4, RON (Homo sapiens, UniProt Q04912)
# T4 construct: gene MST1R
# Method: as §1
# [9] = biological target: T5, LYNa (Homo sapiens, UniProt P07948)
# T5 construct: gene LYN; isoform a
# Method: as §1
# [10] = biological target: EPHA2 (Homo sapiens, UniProt P29317)
# Method: as §1
# [11] = biological target: FGFR3(K650M) (Homo sapiens, UniProt P22607, K650M)
# Method: as §1
# [12] = biological target: BTK (Homo sapiens, UniProt Q06187)
# Method: as §1
# [13] = biological target: FGFR1 (Homo sapiens, UniProt P11362)
# Method: as §1
# [14] = biological target: LTK (Homo sapiens, UniProt P29376)
# Method: as §1
# [15] = biological target: FES (Homo sapiens, UniProt P07332)
# Method: as §1
# [16] = biological target: MARK4 (Homo sapiens, UniProt Q96L34)
# Method: as §1
# [17] = biological target: T6, QIK (Homo sapiens, UniProt Q9H0K1)
# T6 construct: gene SIK2
# Method: as §1
# [18] = biological target: T7, HGK (Homo sapiens, UniProt O95819)
# T7 construct: gene MAP4K4
# Method: as §1
# [19] = biological target: T8, PKACβ (Homo sapiens, UniProt P22694)
# T8 construct: gene PRKACB
# Method: as §1
# [20] = biological target: EPHA1 (Homo sapiens, UniProt P21709)
# Method: as §1
# [21] = biological target: MARK1 (Homo sapiens, UniProt Q9P0L2)
# Method: as §1
# [22] = biological target: PAK5 (Homo sapiens, UniProt Q9P286)
# Method: as §1
# [23] = biological target: T9, PKCβ1 (Homo sapiens, UniProt P05771)
# T9 construct: gene PRKCB; isoform beta 1
# Method: as §1
# [24] = biological target: T10, MSK1 (Homo sapiens, UniProt O75582)
# T10 construct: gene RPS6KA5
# Method: as §1
# [25] = biological target: WNK1 (Homo sapiens, UniProt Q9H4A3)
# Method: as §1
# [26] = biological target: T11, TRKC (Homo sapiens, UniProt Q16288)
# T11 construct: gene NTRK3
# Method: as §1
# [27] = biological target: T12, AurA (Homo sapiens, UniProt O14965)
# T12 construct: gene AURKA
# Method: as §1
# [28] = biological target: SLK (Homo sapiens, UniProt Q9H2G2)
# Method: as §1
# [29] = biological target: ALK(L1196M) (Homo sapiens, UniProt Q9UM73, L1196M)
# Method: as §1
# [30] = biological target: PKN1 (Homo sapiens, UniProt Q16512)
# Method: as §1
# [31] = biological target: T13, MINK (Homo sapiens, UniProt Q8N4C8)
# T13 construct: gene MINK1
# Method: as §1
# FGFR3(K650M), sequence (P22607 whole entry K650M): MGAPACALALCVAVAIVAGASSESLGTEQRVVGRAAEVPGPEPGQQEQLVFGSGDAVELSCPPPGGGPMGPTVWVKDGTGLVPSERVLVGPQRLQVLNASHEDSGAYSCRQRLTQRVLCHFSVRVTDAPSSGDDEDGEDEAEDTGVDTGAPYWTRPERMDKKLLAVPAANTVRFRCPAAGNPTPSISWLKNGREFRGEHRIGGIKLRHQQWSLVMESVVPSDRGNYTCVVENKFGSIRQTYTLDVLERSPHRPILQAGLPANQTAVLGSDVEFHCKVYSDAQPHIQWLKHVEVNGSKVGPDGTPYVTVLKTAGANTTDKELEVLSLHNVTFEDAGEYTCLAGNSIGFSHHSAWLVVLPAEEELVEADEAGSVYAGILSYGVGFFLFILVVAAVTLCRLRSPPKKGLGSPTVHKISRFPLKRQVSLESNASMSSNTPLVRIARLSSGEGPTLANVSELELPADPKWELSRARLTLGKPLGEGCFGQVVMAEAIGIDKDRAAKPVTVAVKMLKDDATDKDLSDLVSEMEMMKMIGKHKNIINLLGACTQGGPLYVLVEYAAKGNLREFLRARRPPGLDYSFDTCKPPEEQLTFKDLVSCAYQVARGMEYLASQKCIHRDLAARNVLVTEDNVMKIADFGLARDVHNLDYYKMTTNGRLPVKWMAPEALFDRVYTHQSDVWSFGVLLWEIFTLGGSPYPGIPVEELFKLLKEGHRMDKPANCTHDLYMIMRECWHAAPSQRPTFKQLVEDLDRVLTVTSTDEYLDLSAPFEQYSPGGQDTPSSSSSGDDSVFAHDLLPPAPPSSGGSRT
# LTK, sequence (P29376 whole entry): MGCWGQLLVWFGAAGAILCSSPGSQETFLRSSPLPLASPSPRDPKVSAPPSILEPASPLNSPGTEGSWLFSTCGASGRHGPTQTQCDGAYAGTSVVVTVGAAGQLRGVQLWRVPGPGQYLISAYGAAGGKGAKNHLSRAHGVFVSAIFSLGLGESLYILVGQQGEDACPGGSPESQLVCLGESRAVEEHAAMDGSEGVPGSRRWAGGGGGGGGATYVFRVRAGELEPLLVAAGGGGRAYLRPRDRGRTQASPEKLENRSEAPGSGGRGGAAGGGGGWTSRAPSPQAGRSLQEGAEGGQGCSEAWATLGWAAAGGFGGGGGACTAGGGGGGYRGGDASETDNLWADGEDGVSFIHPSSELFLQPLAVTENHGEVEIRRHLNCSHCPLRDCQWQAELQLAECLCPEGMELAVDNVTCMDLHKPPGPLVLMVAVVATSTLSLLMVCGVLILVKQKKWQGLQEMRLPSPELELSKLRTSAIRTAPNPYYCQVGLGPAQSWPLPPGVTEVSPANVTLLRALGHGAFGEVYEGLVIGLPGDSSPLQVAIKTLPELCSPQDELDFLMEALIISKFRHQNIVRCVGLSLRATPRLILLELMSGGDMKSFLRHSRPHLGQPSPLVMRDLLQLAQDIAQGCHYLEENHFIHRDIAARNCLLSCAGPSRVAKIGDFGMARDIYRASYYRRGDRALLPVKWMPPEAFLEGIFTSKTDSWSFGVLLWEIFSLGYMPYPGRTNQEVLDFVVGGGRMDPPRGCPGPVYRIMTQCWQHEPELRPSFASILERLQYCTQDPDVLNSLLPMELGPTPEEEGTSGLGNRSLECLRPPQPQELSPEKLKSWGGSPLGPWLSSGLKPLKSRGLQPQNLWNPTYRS
# T2 sequence (Q9BZL6 whole entry): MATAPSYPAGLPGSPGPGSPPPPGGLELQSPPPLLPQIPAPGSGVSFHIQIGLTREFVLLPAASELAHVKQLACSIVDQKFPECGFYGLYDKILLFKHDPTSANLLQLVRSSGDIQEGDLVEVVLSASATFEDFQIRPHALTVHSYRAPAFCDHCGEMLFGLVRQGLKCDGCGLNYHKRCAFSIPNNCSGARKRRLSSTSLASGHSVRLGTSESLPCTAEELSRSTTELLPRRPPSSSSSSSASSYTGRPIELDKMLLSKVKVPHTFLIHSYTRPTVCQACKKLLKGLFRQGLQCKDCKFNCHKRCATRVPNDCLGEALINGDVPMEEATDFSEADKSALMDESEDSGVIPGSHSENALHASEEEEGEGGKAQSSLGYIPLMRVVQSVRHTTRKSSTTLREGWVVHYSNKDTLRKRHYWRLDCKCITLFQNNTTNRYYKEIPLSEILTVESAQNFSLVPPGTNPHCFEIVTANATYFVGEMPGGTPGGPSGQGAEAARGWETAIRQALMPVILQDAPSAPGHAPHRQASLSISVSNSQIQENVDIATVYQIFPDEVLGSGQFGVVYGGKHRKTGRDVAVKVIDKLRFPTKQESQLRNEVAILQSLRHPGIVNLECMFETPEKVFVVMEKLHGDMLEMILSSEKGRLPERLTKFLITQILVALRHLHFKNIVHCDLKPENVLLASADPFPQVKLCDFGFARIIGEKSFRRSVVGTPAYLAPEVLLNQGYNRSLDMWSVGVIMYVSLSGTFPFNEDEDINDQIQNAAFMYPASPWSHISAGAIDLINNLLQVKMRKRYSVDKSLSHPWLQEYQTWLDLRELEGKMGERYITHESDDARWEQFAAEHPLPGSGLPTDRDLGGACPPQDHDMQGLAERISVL
# WNK1, sequence (Q9H4A3 whole entry): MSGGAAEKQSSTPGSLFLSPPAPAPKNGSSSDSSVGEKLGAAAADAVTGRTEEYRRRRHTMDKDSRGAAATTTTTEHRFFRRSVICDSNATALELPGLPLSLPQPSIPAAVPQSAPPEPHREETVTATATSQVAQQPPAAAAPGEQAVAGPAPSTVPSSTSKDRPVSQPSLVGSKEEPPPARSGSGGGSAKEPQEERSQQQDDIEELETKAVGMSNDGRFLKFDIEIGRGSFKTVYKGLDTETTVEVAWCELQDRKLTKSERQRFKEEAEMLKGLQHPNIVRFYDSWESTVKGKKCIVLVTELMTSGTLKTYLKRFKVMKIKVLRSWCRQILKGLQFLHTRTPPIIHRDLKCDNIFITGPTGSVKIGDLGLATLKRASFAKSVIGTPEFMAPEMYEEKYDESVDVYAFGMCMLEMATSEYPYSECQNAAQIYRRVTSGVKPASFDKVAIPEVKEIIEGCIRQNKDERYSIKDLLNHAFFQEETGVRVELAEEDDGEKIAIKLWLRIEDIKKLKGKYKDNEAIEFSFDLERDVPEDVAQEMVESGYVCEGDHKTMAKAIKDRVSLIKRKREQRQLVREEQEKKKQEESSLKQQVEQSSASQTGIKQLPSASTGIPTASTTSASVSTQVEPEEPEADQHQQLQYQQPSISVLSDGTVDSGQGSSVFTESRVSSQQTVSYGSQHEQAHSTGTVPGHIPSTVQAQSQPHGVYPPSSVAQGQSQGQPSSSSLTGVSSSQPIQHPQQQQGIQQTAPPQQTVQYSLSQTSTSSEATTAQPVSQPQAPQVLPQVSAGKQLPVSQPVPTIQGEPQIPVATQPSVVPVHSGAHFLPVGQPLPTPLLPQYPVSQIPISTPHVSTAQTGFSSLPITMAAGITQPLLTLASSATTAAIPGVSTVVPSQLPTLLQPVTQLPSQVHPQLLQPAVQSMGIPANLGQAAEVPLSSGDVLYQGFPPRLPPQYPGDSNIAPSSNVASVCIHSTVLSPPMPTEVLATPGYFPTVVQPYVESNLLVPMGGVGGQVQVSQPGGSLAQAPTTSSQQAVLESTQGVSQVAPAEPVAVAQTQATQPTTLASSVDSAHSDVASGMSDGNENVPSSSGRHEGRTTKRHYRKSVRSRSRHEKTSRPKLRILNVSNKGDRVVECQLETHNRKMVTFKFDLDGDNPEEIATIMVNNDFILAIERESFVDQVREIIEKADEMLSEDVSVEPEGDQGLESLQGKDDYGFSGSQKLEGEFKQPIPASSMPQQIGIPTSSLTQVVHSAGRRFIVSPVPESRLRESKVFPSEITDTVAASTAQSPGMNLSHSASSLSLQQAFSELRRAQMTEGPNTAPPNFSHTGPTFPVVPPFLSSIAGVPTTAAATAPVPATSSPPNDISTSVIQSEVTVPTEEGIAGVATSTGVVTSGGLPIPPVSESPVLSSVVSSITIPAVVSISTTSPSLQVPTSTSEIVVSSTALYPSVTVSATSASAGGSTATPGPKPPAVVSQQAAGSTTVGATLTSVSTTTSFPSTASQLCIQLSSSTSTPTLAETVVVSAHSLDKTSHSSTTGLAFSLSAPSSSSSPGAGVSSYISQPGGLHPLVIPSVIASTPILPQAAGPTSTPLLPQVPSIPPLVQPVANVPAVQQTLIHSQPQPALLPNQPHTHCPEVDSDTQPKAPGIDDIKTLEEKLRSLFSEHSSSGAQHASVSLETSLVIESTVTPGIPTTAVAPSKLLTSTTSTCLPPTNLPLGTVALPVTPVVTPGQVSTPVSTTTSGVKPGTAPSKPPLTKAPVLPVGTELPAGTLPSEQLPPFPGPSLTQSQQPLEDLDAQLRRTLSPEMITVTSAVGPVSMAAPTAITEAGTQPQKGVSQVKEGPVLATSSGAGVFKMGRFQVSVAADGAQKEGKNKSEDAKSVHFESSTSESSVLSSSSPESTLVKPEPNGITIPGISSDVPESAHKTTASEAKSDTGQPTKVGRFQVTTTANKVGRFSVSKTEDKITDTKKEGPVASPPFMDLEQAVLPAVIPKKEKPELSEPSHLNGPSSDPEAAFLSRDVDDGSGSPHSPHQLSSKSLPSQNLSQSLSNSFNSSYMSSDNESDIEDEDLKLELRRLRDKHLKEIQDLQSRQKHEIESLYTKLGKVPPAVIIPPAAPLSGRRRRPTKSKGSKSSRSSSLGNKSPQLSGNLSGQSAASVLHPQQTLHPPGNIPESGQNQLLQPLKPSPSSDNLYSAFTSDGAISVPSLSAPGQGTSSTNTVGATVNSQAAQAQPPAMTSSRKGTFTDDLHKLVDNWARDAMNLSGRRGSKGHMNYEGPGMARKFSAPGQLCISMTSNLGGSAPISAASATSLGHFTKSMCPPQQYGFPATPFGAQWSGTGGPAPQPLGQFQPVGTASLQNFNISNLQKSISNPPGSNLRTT
# FGFR3, sequence (P22607 whole entry): as the sequence (P22607 whole entry K650M) above, with M650K counted along it
compound,measurement,setting,value
"c1cc(-c2ccc3[nH]ncc3c2)ccn1 [TG693, 5-(4-pyridinyl)-1H-indazole]",inhibition at 1 µM,[1],-5.9%
same,inhibition at 1 µM,[2],-7.7%
same,inhibition at 1 µM,[3],5.4%
same,inhibition at 1 µM,[4],2.8%
same,inhibition at 1 µM,[5],-0.6%
same,inhibition at 1 µM,[6],-22.2%
same,inhibition at 1 µM,[7],11.4%
same,inhibition at 1 µM,[8],1.1%
same,inhibition at 1 µM,[9],0.1%
same,inhibition at 1 µM,[10],5.7%
same,inhibition at 1 µM,[11],7.8%
same,inhibition at 1 µM,[12],-9.5%
same,inhibition at 1 µM,[13],6.9%
same,inhibition at 1 µM,[14],3%
same,inhibition at 1 µM,[15],1.3%
same,inhibition at 1 µM,[16],25.1%
same,inhibition at 1 µM,[17],3.4%
same,inhibition at 1 µM,[18],66.5%
same,inhibition at 1 µM,[19],3.1%
same,inhibition at 1 µM,[20],-2.8%
same,inhibition at 1 µM,[21],13.3%
same,inhibition at 1 µM,[22],-14%
same,inhibition at 1 µM,[23],-11.4%
same,inhibition at 1 µM,[24],1.2%
same,inhibition at 1 µM,[25],4.1%
same,inhibition at 1 µM,[26],7.7%
same,inhibition at 1 µM,[27],-6.2%
same,inhibition at 1 µM,[28],1.2%
same,inhibition at 1 µM,[29],2.6%
same,inhibition at 1 µM,[30],34.5%
same,inhibition at 1 µM,[31],23.2%
